Patent US12679827B2, “Pyrimidine compounds and their pharmaceutical uses” (National Health Research Institutes, priority 2020, dated 2026)
Read-outs that look alike come from different tables or passages of the source.

Legend:
MYCN = assay: Western blot, MYCN protein level in SK-N-BE(2) cells; assay type: cell-based, human; settings: SK-N-BE(2) (neuroblastoma) cells; 50, 200, 500, 1000 nM; 24 hours; FIG. 1
Method: Compounds 41 and 86, both covered by Formula (I), were tested to assess their efficacies in reducing the level of cMYC oncoprotein in a human small-cell-lung-cancer (“SCLC”) cell line NCI-H82 (ATCC® HTB-175, USA) and the level of MYCN oncoprotein in a human neuroblastoma cell line SK-N-BE(2) (ATCC® CRL-2271, USA) as follows.
NCI-H82 was maintained in RPMI1640 medium (ThermoFisher Scientific, USA) supplemented with 10% fetal bovine serum (FBS, HyClone, USA) and antibiotics. SK-N-BE(2) was maintained in Minimum Essential Medium (MEM, ThermoFisher Scientific, USA) supplemented with 10% FBS (HyClone, USA) and antibiotics. The cancer cells from each cell line were treated with each of compounds 41 and 86 at 4 different compound concentrations, i.e., 50 nM, 200 nM, 500 nM, and 1000 nM. After 24 hours, each cancer cell solution was washed with 1× phosphate buffered saline (PBS), lysed in 1× Laemmli protein sample buffer, and boiled at 100° C. for 10 minutes. Each lysate was separated by SDS-PAGE, transferred to polyvinylidene fluoride (PVDF, Millipore, USA) membrane, and blotted with antibodies. Primary antibodies used for Western blotting were cMYC (Cell Signaling, Cat No. 5605S), MYCN (Cell Signaling, 9405S), PARP-1 (Abcam, ab32378), and GAPDH (Genetex, GTX100118). […]

NCI-H82 = assay: Small-cell-lung cancer cell proliferation inhibition assay (PrestoBlue), NCI-H82; assay type: cell-based; settings: Homo sapiens, cMYC amplified SCLC cells, 72 hours
Method: (§1) Small cell lung cancer cells NCI-H82 (ATCC HTB-175, cMYC amplified), NCI-H446 (ATCC® HTB-171, cMYC amplified), and NCI-H69 (ATCC® HTB-119, MYCN amplified) were seeded at the density of 5000-10000 cells per well in 96-well plates. After 24 hours, the cancer cells were treated with each compound at various concentrations (0-10 μM) and then incubated for another 72 hours. IC50 values were computed based on duplicated 8-point titration.

NCI-H446 = assay: Proliferation inhibition of various cancer cells (PrestoBlue), NCI-H446; assay type: cell-based; settings: Homo sapiens, Small cell lung cancer, 72 hours
Method: (§2) The efficacies of compounds 41 and 86 of Formula (I) in inhibiting proliferation of eleven types of cancer cells were determined using PrestoBlue™ Cell Viability Reagent (ThermoFisher Scientific, USA). The eleven types of cancer cells are small cell lung cancer, non-small cell lung cancer, liver cancer, pancreatic cancer, breast cancer, colon cancer, prostate cancer, neuroblastoma, brain cancer, leukemia, and cholangiocarcinoma.
(§3) More specifically, […], i.e., NCI-H82 (ATCC® HTB-175), NCI-H446 (ATCC® HTB-171), NCI-H69 (ATCC® HTB-119), NCI-H146 (ATCC® HTB-173), NCI-H1792 (ATCC® CRL-5895), NCI-H1299 (ATCC® CRL-5803), SNU-398 (ATCC® CRL-2233), PSN-1 (ATCC® CRL-3211), MIA PaCa-2 (ATCC® CRL-1420), MDA-MB-231 (ATCC® HTB-26), LOVO (ATCC® CCL-229), COLO 205 (ATCC® CCL-222), PC-3 (ATCC® CRL-1435), SK-N-BE(2) (ATCC® CRL-2271), D341 Med (ATCC® HTB-187), K562 (ATCC® CCL-243), MOLM-13 (DSMZ-German Collection of Microorganisms and Cell Cultures GmbH, ACC No. 554), and SNU-478 (KCLB 00478), were seeded at a density of 4000-10000 cells per well in 96-well plates for 24 hours. The cancer cells were then treated with each compound at various concentrations (0-10 μM), followed by incubation for another 72 hours. IC50 values were computed based on duplicated 8-point titration.

NCI-H69 [1] = assay: Proliferation inhibition of various cancer cells (PrestoBlue), NCI-H69; assay type: cell-based; settings: Homo sapiens, Small cell lung cancer, 72 hours
Method: as §2, §3

NCI-H146 = assay: Proliferation inhibition of various cancer cells (PrestoBlue), NCI-H146; assay type: cell-based; settings: Homo sapiens, Small cell lung cancer, 72 hours
Method: as §2, §3

NCI-H1792 = assay: Proliferation inhibition of various cancer cells (PrestoBlue), NCI-H1792; assay type: cell-based; settings: Homo sapiens, Non-small cell lung cancer, 72 hours
Method: as §2, §3

SNU-398 = assay: Proliferation inhibition of various cancer cells (PrestoBlue), SNU-398; assay type: cell-based; settings: Homo sapiens, Liver cancer, 72 hours
Method: as §2, §3

PSN-1 = assay: Proliferation inhibition of various cancer cells (PrestoBlue), PSN-1; assay type: cell-based; settings: Homo sapiens, PSN1; Pancreatic cancer; 72 hours
Method: as §2, §3

MIA PaCa-2 = assay: Proliferation inhibition of various cancer cells (PrestoBlue), MIA PaCa-2; assay type: cell-based; settings: Homo sapiens, Pancreatic cancer, 72 hours
Method: as §2, §3

LOVO = assay: Proliferation inhibition of various cancer cells (PrestoBlue), LOVO; assay type: cell-based; settings: Homo sapiens, Colon cancer, 72 hours
Method: as §2, §3

Colo205 = assay: Proliferation inhibition of various cancer cells (PrestoBlue), Colo205; assay type: cell-based; settings: Homo sapiens, COLO 205; Colon cancer; 72 hours
Method: as §2, §3

D341 Med = assay: Proliferation inhibition of various cancer cells (PrestoBlue), D341 Med; assay type: cell-based; settings: Brain cancer, 72 hours
Method: as §2, §3

K562 = assay: Proliferation inhibition of various cancer cells (PrestoBlue), K562; assay type: cell-based; settings: Homo sapiens, Leukemia, 72 hours
Method: as §2, §3

SNU-478 = assay: Proliferation inhibition of various cancer cells (PrestoBlue), SNU-478; assay type: cell-based; settings: Cholangiocarcinoma; 72 hours
Method: as §2, §3

[2] = test system: eleven types of cancer cells; assay: Proliferation inhibition of eleven types of cancer cells (summary by cancer type); assay type: cell-based
Method: as §2, §3

NCI-H69 [3] = assay: Small-cell-lung cancer cell proliferation inhibition assay (PrestoBlue), NCI-H69; assay type: cell-based; settings: Homo sapiens, MYCN amplified SCLC cells, 72 hours
Method: as §1

[4] = all eleven cancer types, read-out: IC50 in inhibiting proliferation of all the eleven types of cancer cells
[5] = breast cancer, read-out: IC50 in inhibiting proliferation of cells
[6] = cholangiocarcinoma, read-out: IC50 in inhibiting proliferation of cells
[7] = non-small cell lung cancer, pancreatic cancer, and colon cancer, read-out: IC50 in inhibiting proliferation of cells
[8] = prostate cancer, read-out: IC50 in inhibiting proliferation of cells
[9] = small-cell-lung cancer, liver cancer, neuroblastoma, brain cancer, and leukemia, read-out: IC50 in inhibiting proliferation of cells

Row | IC50 (NCI-H82) [µM] | IC50 (NCI-H446) [µM] | IC50 (NCI-H69 [1]) [µM] | IC50 (NCI-H146) [µM] | IC50 (NCI-H1792) [µM] | IC50 (SNU-398) [µM] | IC50 (PSN-1) [µM] | IC50 (MIA PaCa-2) [µM] | IC50 (LOVO) [µM] | IC50 (Colo205) [µM] | IC50 (D341 Med) [µM] | IC50 (K562) [µM] | IC50 (SNU-478) [µM] | IC50 [2, 4] [µM] | IC50 [2, 5] [µM] | IC50 [2, 6] [µM] | IC50 [2, 7] [µM] | IC50 [2, 8] [µM] | IC50 [2, 9] [µM] | Structure (SMILES) | protein level of MYCN (MYCN) | other results
1 | < 1 | < 0.2 | < 0.2 | < 2 | < 2 | < 0.2 | < 2 | < 1 | < 10 | < 1 | < 0.2 | < 1 | < 2 | < 10 | < 0.3 | < 2 | < 1 | < 10 | < 0.2 | CCN1CCN(c2cc(Nc3cc(C)[nH]n3)nc(N[C@H]3CCN(C(=O)c4ccc(Cl)cc4F)C3)n2)CC1 [Compound 41] | greatly reduced | –
2 | < 1 | < 0.2 | < 0.2 | < 10 | < 2 | < 0.2 | < 2 | < 1 | < 10 | < 1 | < 0.3 | < 1 | < 2 | < 10 | < 0.3 | < 2 | < 1 | < 10 | < 0.2 | CCN1CCN(c2cc(Nc3cc(C)[nH]n3)nc(NC3CCN(C(=O)c4cccc(Cl)c4F)CC3)n2)CC1 [Compound 86] | greatly reduced | IC50 (NCI-H69 [3]): < 1 µM
